Measurements reported in ChEMBL document CHEMBL6071142, “Isoalantolactone/hydroxamic acid hybrids as potent dual STAT3/HDAC inhibitors and self-assembled nanoparticles for cancer therapy” (Eur J Med Chem, 2024).
The source made the active and inactive calls. The calls are words filed in the database; no cut-off is given here.

Assays:
[1] = Toxicity in female BALB/c nu/nu mouse xenografted with human A549 cells assessed as effect on liver at 2.5 mg/kg, iv by H and E staining based analysis; format: organism-based; settings: in vivo
[2] = target: Signal transducer and activator of transcription 5A (Homo sapiens, UniProt P42229); assay: Binding affinity to STAT5A (unknown origin) assessed as dissociation constant by SPR assay
A549 [3] = assay: In vivo antitumor activity against human A549 cells xenografted in female BALB/c nu/nu mouse assessed as tumor volume at 5 mg/kg, iv administered every 3 days and measured on 18 day relative to control; format: functional; settings: time 3 day
A549 [4] = assay: Induction of apoptosis in human A549 cells assessed as decrease in BCL-2 protein level at 6 uM incubated for 12 hrs by Western blot analysis
[5] = target: T1, Class 1 histone deacetylase (Homo sapiens) (UniProt Q13547+O15379+Q92769+Q9BY41); assay: Inhibition of class 1 HDAC in human A549 cells assessed as increase in Ac-histone H3 level at 0.5 uM incubated for 12 hrs by Western blot analysis; format: cell-based
T1 sequence (O15379 whole entry, looked up): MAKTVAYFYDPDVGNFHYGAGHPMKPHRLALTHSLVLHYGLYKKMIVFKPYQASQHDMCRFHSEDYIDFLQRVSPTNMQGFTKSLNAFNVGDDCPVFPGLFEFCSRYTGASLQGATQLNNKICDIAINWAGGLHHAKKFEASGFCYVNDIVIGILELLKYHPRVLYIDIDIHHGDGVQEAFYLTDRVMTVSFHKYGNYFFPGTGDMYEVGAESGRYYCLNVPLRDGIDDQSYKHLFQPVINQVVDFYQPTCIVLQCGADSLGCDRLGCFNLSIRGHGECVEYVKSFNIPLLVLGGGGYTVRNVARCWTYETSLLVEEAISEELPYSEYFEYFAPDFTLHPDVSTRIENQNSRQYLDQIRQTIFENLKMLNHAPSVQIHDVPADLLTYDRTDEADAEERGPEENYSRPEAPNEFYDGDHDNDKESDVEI
T1 sequence (Q13547 whole entry, looked up): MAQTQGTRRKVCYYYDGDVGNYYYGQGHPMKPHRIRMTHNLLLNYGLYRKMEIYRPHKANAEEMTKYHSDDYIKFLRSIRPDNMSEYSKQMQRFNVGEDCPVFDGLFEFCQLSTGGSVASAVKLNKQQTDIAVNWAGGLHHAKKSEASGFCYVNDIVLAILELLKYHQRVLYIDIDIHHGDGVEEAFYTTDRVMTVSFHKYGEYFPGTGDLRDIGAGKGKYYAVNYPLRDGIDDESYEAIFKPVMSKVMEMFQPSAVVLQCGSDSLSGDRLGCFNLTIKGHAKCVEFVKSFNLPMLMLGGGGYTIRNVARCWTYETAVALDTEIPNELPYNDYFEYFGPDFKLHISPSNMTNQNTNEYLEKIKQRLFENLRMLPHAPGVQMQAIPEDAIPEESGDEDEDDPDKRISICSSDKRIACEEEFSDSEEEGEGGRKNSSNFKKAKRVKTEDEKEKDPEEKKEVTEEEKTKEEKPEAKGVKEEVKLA
T1 sequence (Q92769 whole entry, looked up): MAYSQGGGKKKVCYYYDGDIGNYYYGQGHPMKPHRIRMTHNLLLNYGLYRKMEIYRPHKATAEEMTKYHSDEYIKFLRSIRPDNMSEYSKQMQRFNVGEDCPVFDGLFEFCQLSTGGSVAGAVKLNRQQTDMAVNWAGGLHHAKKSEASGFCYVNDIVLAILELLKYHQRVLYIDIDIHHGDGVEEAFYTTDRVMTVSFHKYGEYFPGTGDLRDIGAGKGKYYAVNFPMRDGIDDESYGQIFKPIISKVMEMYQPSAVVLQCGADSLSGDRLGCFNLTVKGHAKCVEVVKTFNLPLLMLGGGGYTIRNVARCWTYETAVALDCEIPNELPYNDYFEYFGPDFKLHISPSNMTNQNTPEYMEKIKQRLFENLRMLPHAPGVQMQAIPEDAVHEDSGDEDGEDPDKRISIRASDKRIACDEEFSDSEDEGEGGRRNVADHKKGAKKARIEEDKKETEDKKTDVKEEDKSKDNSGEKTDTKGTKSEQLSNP
T1 sequence (Q9BY41 whole entry, looked up): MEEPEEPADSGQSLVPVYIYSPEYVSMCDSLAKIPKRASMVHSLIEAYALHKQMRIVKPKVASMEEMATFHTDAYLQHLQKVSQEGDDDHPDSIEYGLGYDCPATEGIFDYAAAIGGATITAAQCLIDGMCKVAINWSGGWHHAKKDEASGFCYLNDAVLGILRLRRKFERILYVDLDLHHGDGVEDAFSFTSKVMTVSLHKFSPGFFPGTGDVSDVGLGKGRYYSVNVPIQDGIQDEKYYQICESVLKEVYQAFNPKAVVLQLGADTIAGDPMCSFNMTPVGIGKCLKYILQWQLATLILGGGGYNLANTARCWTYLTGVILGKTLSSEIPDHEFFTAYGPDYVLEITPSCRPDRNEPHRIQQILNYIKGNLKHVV

[6] = Toxicity in female BALB/c nu/nu mouse xenografted with human A549 cells assessed as effect on kidney at 5 mg/kg, iv by H and E staining based analysis; format: organism-based; settings: in vivo
[7] = target: Signal transducer and activator of transcription 6 (Homo sapiens, UniProt P42226); assay: Binding affinity to STAT6 (unknown origin) assessed as dissociation constant by SPR assay
Signal transducer and activator of transcription 6, sequence (P42226 whole entry): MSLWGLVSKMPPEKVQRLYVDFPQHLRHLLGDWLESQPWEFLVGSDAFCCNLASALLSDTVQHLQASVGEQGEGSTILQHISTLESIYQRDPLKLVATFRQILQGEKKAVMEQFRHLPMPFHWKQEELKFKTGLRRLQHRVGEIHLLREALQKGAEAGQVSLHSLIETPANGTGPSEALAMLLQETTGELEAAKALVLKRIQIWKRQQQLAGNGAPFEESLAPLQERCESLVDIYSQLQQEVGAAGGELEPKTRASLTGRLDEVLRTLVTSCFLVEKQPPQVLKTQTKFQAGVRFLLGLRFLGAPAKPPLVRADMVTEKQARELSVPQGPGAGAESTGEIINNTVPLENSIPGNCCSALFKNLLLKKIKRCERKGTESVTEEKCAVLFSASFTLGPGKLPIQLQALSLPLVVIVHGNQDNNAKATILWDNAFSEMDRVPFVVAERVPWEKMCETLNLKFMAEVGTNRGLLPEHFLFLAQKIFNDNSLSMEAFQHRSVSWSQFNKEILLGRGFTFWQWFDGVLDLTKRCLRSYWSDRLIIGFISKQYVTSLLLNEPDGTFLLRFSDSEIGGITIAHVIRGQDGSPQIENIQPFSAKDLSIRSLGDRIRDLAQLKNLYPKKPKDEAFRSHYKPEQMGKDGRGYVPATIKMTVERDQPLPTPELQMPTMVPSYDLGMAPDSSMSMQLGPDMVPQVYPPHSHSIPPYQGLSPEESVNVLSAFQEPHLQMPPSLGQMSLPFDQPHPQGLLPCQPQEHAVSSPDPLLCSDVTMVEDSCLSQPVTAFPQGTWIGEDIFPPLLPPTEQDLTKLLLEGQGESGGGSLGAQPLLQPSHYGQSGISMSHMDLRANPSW

[8] = target: T1, Class 1 histone deacetylase (Homo sapiens); assay: Inhibition of class 1 HDAC in human A549 cells assessed as increase in […] at 0.5 uM incubated for 12 hrs by Western blot analysis; format: cell-based
A549 [9] = assay: Anticancer activity against human A549 cells assessed as cell viability incubated for 72 hrs using self assembled nanoparticle as source of compound by CCK-8 assay; format: functional, cell-based; settings: A549, 72 h
HCT-116 = assay: Anticancer activity against human HCT-116 cells assessed as cell viability incubated for 72 hrs using self assembled nanoparticle as source of compound by CCK-8 assay; format: functional, cell-based; settings: HCT-116, 72 h
A549 [10] = assay: Induction of autophagy in human A549 cells transfected with mRFP-GFP-LC3 at 0.5 uM incubated for 24 hrs by confocal microscopic analysis; format: functional, cell-based
Histone deacetylase 1 = Histone deacetylase 1 (Homo sapiens, UniProt Q13547); assay: Inhibition of recombinant human HDAC1 using Boc-Lys (acetyl)-AMC as substrate preincubated with compound for 1 hr followed by substrate addition and measured after 30 mins by microplate reader assay
Histone deacetylase 1, sequence (Q13547 whole entry): as the sequence (Q13547 whole entry, looked up) above

[11] = Toxicity in female BALB/c nu/nu mouse xenografted with human A549 cells assessed as effect on spleen at 5 mg/kg, iv by H and E staining based analysis; format: organism-based; settings: in vivo
[12] = Toxicity in female BALB/c nu/nu mouse xenografted with human A549 cells assessed as effect on body weight at 2.5 mg/kg, iv and measured regularly; format: organism-based; settings: in vivo
[13] = Binding affinity to STAT2 (unknown origin) assessed as dissociation constant by SPR assay; design: species or system Homo sapiens
[14] = Toxicity in female BALB/c nu/nu mouse xenografted with human A549 cells assessed as effect on body weight at 5 mg/kg, iv and measured regularly; format: organism-based; settings: in vivo
[15] = Biodistribution in heart of nude mouse xenografted with A549 cells at 5 mg/kg, iv using chlorine e6 loaded self-assembled nanoparticle as source of compound incubated for 24 hrs by ex-vivo fluorescence based LC-MS/MS analysis; format: ADME, organism-based
[16] = target: Signal transducer and activator of transcription 4 (Homo sapiens, UniProt Q14765); assay: Binding affinity to STAT4 (unknown origin) assessed as dissociation constant by SPR assay
Histone deacetylase 2 = Histone deacetylase 2 (Homo sapiens, UniProt Q92769); assay: Inhibition of recombinant human HDAC2 using Boc-Lys (acetyl)-AMC as substrate preincubated with compound for 1 hr followed by substrate addition and measured after 30 mins by microplate reader assay
Histone deacetylase 2, sequence (Q92769 whole entry): as the sequence (Q92769 whole entry, looked up) above

A549 [17] = assay: Induction of apoptosis in human A549 cells assessed as necrotic cells at 4 uM incubated for 24 hrs by Annexin V-FITC/PI staining based flow cytometric analysis (reference value: 1.20%); format: functional
A549 [18] = assay: Effect on Bcl-2 protein level in human A549 cells at 4 uM incubated for 12 hrs by Western blot analysis; format: functional, cell-based
A549 [19] = assay: Induction of apoptosis in human A549 cells assessed as necrotic cells at 2 uM incubated for 24 hrs by Annexin V-FITC/PI staining based flow cytometric analysis (reference value: 1.20%); format: functional
[20] = Biodistribution in spleen of nude mouse xenografted with A549 cells at 5 mg/kg, iv using chlorine e6 loaded self-assembled nanoparticle as source of compound incubated for 24 hrs by ex-vivo fluorescence based LC-MS/MS analysis; format: ADME, organism-based
[21] = target: Signal transducer and activator of transcription 3 (Homo sapiens, UniProt P40763); assay: Binding affinity to recombinant human STAT3 using 5-FAM-G(pTyr)LPQTV-NH2 as substrate preincubated with compound for 1 hr followed by substrate addition and measured after 30 mins by fluorescent polarization based binding assay
Signal transducer and activator of transcription 3, sequence (P40763 whole entry): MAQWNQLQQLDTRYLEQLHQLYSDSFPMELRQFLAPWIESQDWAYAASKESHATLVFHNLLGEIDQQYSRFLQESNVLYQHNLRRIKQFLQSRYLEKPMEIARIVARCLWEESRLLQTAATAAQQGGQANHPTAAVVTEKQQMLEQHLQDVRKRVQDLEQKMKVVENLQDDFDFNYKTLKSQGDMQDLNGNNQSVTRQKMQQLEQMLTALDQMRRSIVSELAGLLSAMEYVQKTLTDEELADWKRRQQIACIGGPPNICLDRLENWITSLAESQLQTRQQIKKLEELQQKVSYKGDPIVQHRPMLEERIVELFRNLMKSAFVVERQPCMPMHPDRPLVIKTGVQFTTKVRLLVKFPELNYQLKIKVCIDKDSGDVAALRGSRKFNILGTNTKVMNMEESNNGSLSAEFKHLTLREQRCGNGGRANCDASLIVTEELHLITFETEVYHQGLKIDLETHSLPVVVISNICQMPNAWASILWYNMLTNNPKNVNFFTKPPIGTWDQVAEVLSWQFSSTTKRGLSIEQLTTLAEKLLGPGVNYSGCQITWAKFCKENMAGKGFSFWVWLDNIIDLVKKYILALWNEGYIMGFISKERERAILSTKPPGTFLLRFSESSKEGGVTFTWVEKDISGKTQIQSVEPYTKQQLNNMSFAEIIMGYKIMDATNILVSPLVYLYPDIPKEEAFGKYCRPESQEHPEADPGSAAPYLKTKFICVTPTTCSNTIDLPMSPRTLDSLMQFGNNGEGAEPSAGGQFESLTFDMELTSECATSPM

[22] = Toxicity in female BALB/c nu/nu mouse xenografted with human A549 cells assessed as effect on kidney at 2.5 mg/kg, iv by H and E staining based analysis; format: organism-based; settings: in vivo
A549 [23] = assay: Induction of apoptosis in human A549 cells at 4 uM incubated for 24 hrs by Annexin V-FITC/PI staining based flow cytometric analysis; format: functional
HeLa = assay: cells; format: functional, cell-based; settings: Homo sapiens, 72 h
Description: Antiproliferative activity against human Hela cells assessed as inhibition of cell proliferation incubated for 72 hrs by CCK-8 assay

Histone deacetylase 7 = Histone deacetylase 7 (Homo sapiens, UniProt Q8WUI4); assay: Inhibition of recombinant human HDAC7 using Boc-Lys (trifluroacetyl)-AMC as substrate preincubated with compound for 1 hr followed by substrate addition and measured after 30 mins by microplate reader assay
Histone deacetylase 7, sequence (Q8WUI4 whole entry): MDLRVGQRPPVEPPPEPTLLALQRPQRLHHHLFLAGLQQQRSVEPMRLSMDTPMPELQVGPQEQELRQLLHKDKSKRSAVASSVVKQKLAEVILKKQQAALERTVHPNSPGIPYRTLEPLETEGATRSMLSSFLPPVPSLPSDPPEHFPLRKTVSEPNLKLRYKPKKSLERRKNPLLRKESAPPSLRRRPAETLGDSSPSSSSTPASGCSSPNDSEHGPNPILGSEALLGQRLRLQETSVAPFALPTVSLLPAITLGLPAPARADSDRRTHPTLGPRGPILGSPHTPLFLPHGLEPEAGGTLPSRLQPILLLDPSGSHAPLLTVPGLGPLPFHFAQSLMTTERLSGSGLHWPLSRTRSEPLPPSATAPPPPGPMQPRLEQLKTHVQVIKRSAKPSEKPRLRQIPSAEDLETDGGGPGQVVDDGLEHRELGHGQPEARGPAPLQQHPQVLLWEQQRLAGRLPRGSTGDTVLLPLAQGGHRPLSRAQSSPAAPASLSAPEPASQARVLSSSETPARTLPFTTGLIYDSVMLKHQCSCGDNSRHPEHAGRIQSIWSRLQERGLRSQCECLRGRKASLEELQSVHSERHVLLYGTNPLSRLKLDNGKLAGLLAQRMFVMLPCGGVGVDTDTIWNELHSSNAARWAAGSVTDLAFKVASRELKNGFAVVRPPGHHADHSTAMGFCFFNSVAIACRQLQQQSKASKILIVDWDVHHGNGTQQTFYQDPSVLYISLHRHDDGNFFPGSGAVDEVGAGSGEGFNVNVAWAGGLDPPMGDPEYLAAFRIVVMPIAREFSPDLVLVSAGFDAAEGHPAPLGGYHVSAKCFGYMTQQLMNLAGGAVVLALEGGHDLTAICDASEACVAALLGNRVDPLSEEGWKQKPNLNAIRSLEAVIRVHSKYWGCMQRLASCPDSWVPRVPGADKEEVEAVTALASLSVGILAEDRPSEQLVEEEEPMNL

A549 [24] = assay: In vivo antitumor activity against human A549 cells xenografted in female BALB/c nu/nu mouse assessed as Ac-Histone H3 at 5 mg/kg, iv administered every 3 days for 18 days by Western blotting analysis; settings: time 3.0 day
[25] = Toxicity in female BALB/c nu/nu mouse xenografted with human A549 cells assessed as effect on lung at 2.5 mg/kg, iv by H and E staining based analysis; format: organism-based; settings: in vivo
[26] = Drug uptake in human A549 cells assessed as increase in red fluorescence incubated for 4 hrs using chlorine e6 loaded self assembled nanoparticle as source of compound by fluorescence based flow cytometric analysis; format: ADME, cell-based; settings: a549, 4 h
A549 [27] = assay: Induction of autophagy in human A549 cells transfected with mRFP-GFP-LC3 assessed as decrease in P62 protein level at 0.5 uM incubated for 12 hrs by Western blot analysis; format: functional, cell-based
A549 [28] = assay: Induction of apoptosis in human A549 cells at 2 uM incubated for 24 hrs by Annexin V-FITC/PI staining based flow cytometric analysis; format: functional
HepG2 = assay: Anticancer activity against human HepG2 cells assessed as cell viability incubated for 72 hrs using self assembled nanoparticle as source of compound by CCK-8 assay; format: functional, cell-based; settings: HepG2, 72 h

C=C1C(=O)O[C@@H]2C[C@@]3(C)CC[C@@H](OC(=O)[C@H](C)NC(=O)c4ccc(/C=C/C(=O)NO)cc4)C(=C)[C@@H]3C[C@H]12
Activity [1]: Non-Toxic | Kd [2]: Not Active | Activity (A549 [3]): 47.3% | Activity (A549 [4]): Active | inhibition [5]: Active | Activity [6]: Non-Toxic | Kd [7]: Not Active | inhibition [8]: Active | IC50 (A549 [9]): 0.069 µM | IC50 (HCT-116): 0.023 µM | Activity (A549 [10]): Active | IC50 (Histone deacetylase 1): 0.062 µM | Activity [11]: Non-Toxic | Activity [12]: Non-Toxic | Kd [13]: Not Active | Activity [14]: Non-Toxic | Drug uptake [15]: Active | Kd [16]: Not Active | IC50 (Histone deacetylase 2): 0.0526 µM | Activity (A549 [17]): 2.99% | Activity (A549 [18]): inactive | Activity (A549 [19]): 1.59% | Drug uptake [20]: Active | IC50 [21]: 0.35 µM | Activity ([21]; time 1.5 hrs): Dose-Dependent Effect | Activity [22]: Non-Toxic | Activity (A549 [23]): 40% | IC50 (HeLa): 0.13 µM | IC50 (Histone deacetylase 7): > 10 µM | Activity (A549 [24]): Active | Activity [25]: Non-Toxic | Drug uptake [26]: Active | Activity (A549 [27]): Active | Activity (A549 [28]): 15% | IC50 (HepG2): 0.17 µM
